Laboratory results published in ChEMBL document CHEMBL3616434, “Identification of Phenoxyalkylbenzimidazoles with Antitubercular Activity” (J Med Chem, 2015).
≈ marks a conversion by molar mass, not a printed value. Calls of active or inactive are those of the source. No cut-off for these calls is given here.

What was measured:
[1] = tested on: Mycobacterium tuberculosis; test: Bactericidal activity against replicating Mycobacterium tuberculosis at 1 to 10 times MIC after 21 days; type: functional, organism-based
[2] = Selectivity index, ratio of TC50 for African green monkey Vero cells to MIC for Mycobacterium tuberculosis H37Rv ATCC 25618
[3] = tested on: Mycobacterium tuberculosis; test: Antitubercular activity against Mycobacterium tuberculosis H37Rv ATCC 25618 under aerobic condition after 5 days; type: functional; conditions: H37Rv ATCC 25618, 120 h
[4] = Cytotoxicity against African green monkey Vero cells after 2 days by luminescent assay; type: cell-based; conditions: chlorocebus sabaeus, read-out: TC50
[5] = Thermodynamic equilibrium solubility of the compound using 10 mM DMSO at pH 2; type: physicochemical; conditions: buffer, read-out: Therm_solubility
[6] = Metabolic stability of the compound in mouse liver microsomes assessed as compound turnover at 2 uM after 30 mins by LC-MS analysis; type: ADME; conditions: read-out: Drug metabolism
[7] = Thermodynamic equilibrium solubility of the compound using 10 mM DMSO at pH 6; type: physicochemical; conditions: buffer, read-out: Therm_solubility
[8] = Thermodynamic equilibrium solubility of the compound using 10 mM DMSO at pH 7.4; type: physicochemical; conditions: buffer, read-out: Therm_solubility
[9] = Metabolic stability of the compound in human liver microsomes assessed as compound turnover at 2 uM after 30 mins by LC-MS analysis; type: ADME; conditions: read-out: Drug metabolism
[10] = Metabolic stability of the compound in rat liver microsomes assessed as compound turnover at 2 uM after 30 mins by LC-MS analysis; type: ADME; conditions: read-out: Drug metabolism
Staphylococcus aureus = test: Antimicrobial activity against Staphylococcus aureus after 2 days by serial proportion method; type: functional; conditions: 48 h
[11] = tested on: Mycolicibacterium smegmatis; test: Antimicrobial activity against Mycobacterium smegmatis MC2 155 after 5 to 7 days by serial proportion method; type: functional; conditions: str. MC2 155
Escherichia coli = test: Antimicrobial activity against Escherichia coli after 1 day by serial proportion method; type: functional; conditions: 24 h
[12] = tested on: Mycobacterium tuberculosis; test: Antitubercular activity against Mycobacterium tuberculosis after 21 to 28 days by serial proportion method; type: functional
[13] = Fraction unbound in mouse plasma after 4.5 hrs by LC-MS/MS analysis; type: ADME, cell-free
[14] = tested on: Mycobacterium tuberculosis; test: Bactericidal activity against nonreplicating Mycobacterium tuberculosis assessed as log reduction CFU at 1 to 10 times MIC after 21 days; type: functional
MDCK = test: Passive permeability of the compound from apical to basolateral direction in MDCK cells at 10 uM in presence of P-gp inhibitor; type: ADME, cell-based, Canis lupus familiaris; conditions: dog
[15] = tested on: Mycobacterium tuberculosis; test: Bactericidal activity against nonreplicating Mycobacterium tuberculosis assessed as log reduction CFU at MIC after 21 days; type: functional
[16] = tested on: Mycobacterium tuberculosis; test: Ratio of MBC to MIC for replicating Mycobacterium tuberculosis at 1 to 10 times MIC after 21 days; type: functional
[17] = tested on: Mycobacterium tuberculosis; test: Antitubercular activity against Mycobacterium tuberculosis H37Rv; type: functional
[18] = tested on: Mycobacterium tuberculosis; test: Bactericidal activity against replicating Mycobacterium tuberculosis assessed as log reduction CFU at 1 to 10 times MIC after 21 days; type: functional

Structure (SMILES)	Ratio [2]	MIC [3] [µM]	CC50 at 48 h [4] [µM]	also measured
CCc1nc2ccc(C)cc2n1CCCOc1ccc(C)c(Cl)c1	77	0.22 (≈ 0.0754 µg/mL)	17	Activity [1]: inactive
CCc1nc2ccc(C)cc2n1CCCCOc1ccccc1	67	0.27 (≈ 0.0833 µg/mL)	18	solubility thermodynamic [5]: 630 µg/mL (≈ 2040 µM); metabolised at 0.5 h, 2 µM [6]: 99.9%; solubility thermodynamic [7]: 40 µg/mL (≈ 130 µM); solubility thermodynamic [8]: 10 µg/mL (≈ 32.4 µM); metabolised at 0.5 h, 2 µM [9]: 98.9%; metabolised at 0.5 h, 2 µM [10]: 99.9%
CCc1nc2ccccc2n1CCCCOc1ccccc1	19	1.1 (≈ 0.324 µg/mL)	21	MIC99 (Staphylococcus aureus): > 100 µM; MIC99 [11]: > 100 µM; MIC99 (Escherichia coli): > 100 µM; MIC99 [12]: 5 µM (≈ 1.47 µg/mL)
CCc1nc2ccccc2n1CCCCSc1nnc(-c2ccc(Cl)cc2)o1	220	0.1 (≈ 0.0413 µg/mL)	22	MIC99 (Staphylococcus aureus): > 100 µM; solubility thermodynamic [5]: 830 µg/mL (≈ 2010 µM); Activity [1]: inactive; MIC99 [11]: > 100 µM; metabolised at 0.5 h, 2 µM [6]: 99.8%; fraction unbound at 4.5 h [13]: 0.006; FC [14]: >3; solubility thermodynamic [7]: < 1 µg/mL; solubility thermodynamic [8]: < 1 µg/mL; metabolised at 0.5 h, 2 µM [9]: 99.9%; MIC99 (Escherichia coli): > 100 µM; MIC99 [12]: 2.5 µM (≈ 1.03 µg/mL); permeability (MDCK): 4.4%; metabolised at 0.5 h, 2 µM [10]: 99.9%; FC [15]: >3
CCc1nc2ccccc2n1CCCCNc1ccccc1	89	0.47 (≈ 0.138 µg/mL)	42	solubility thermodynamic [5]: 610 µg/mL (≈ 2080 µM); Activity [1]: inactive; metabolised at 0.5 h, 2 µM [6]: 99.9%; fraction unbound at 4.5 h [13]: 0.045; solubility thermodynamic [7]: 10 µg/mL (≈ 34.1 µM); solubility thermodynamic [8]: < 1 µg/mL; metabolised at 0.5 h, 2 µM [9]: 90.6%; permeability (MDCK): 21.5%; metabolised at 0.5 h, 2 µM [10]: 99.9%
CCc1nc2ccccc2n1CCCCOc1ccc(Cl)c(F)c1	10	1.6 (≈ 0.555 µg/mL)	16	
CCc1nc2ccccc2n1CCCOc1ccccc1	>9.6	5.2 (≈ 1.46 µg/mL)	> 50	Ratio [16]: >4; FC [14]: >3; MIC [17]: 3.4 µM (≈ 0.953 µg/mL); FC [18]: 2; FC [15]: >3
CCc1nc2cnc(C)cc2n1CCCCOc1ccccc1	47	1.5 (≈ 0.464 µg/mL)	71	
CCc1nc2ccc(C#N)cc2n1CCCCOc1ccccc1	>20	> 20	> 20	
CCc1nc2ccc(C)cc2n1CCCCNc1ccccc1	66	0.32 (≈ 0.0984 µg/mL)	21	
CCc1nc2ccc(C)cc2n1CCCCNc1ccc(C)cc1	133	0.15 (≈ 0.0482 µg/mL)	20	
CCc1nc2ccc(C)cc2n1CCCNc1ccc(Br)c(C)c1	523	0.052 (≈ 0.0201 µg/mL)	27	Activity [1]: inactive
CCc1nc2ccccc2n1CCCCOc1ccc(C)c(Cl)c1	61	0.23 (≈ 0.0789 µg/mL)	14	
CCc1nc2ccc(Cl)cc2n1CCCCOc1ccccc1	3.5	7.1 (≈ 2.33 µg/mL)	25	
CCc1nc2ccc(C)cc2n1CCCCNc1ccc(C)c(Br)c1	109	0.11 (≈ 0.044 µg/mL)	12	
CCc1nc2cc(Cl)cnc2n1CCCCOc1ccccc1	6.2	6.1 (≈ 2.01 µg/mL)	38	
CCc1nc2ccc(C)cc2n1CCCOc1ccc(C)c(C)c1	33	0.22 (≈ 0.0709 µg/mL)	7.3	
CCc1nc2ccccc2n1CCCCOc1c(Cl)cccc1Cl	1.5	20 (≈ 7.27 µg/mL)	13	
CCc1nc2ccccc2n1CCCCOc1cccc(Cl)c1	25	0.88 (≈ 0.289 µg/mL)	22	

Structure (SMILES)	Ratio [2]	MIC [3] [µM]	CC50 at 48 h [4] [µM]	also measured
CCc1nc2ccccc2n1CCCCSc1ccccc1	22	1.4 (≈ 0.435 µg/mL)	31	MIC99 (Staphylococcus aureus): > 100 µM; MIC99 [11]: > 100 µM; MIC99 (Escherichia coli): > 100 µM; MIC99 [12]: 10 µM (≈ 3.1 µg/mL)
CCc1nc2ccccc2n1CCCCOc1ccc(Cl)cc1Cl	13	1.8 (≈ 0.654 µg/mL)	23	
c1ccc(OCCCCn2c(-c3ccccc3)nc3ccccc32)cc1	1.2	16 (≈ 5.48 µg/mL)	19	
CCc1nc2ccccc2n1CCCCOc1ccc(OC)cc1	27	1.2 (≈ 0.389 µg/mL)	21	
c1ccc(OCCCCn2c(N3CCOCC3)nc3ccccc32)cc1	20	20 (≈ 7.03 µg/mL)	20	
CCc1nc2cc(C#N)ccc2n1CCCCOc1ccccc1	>20	> 20	> 20	
CCc1nc2ccccc2n1CCCCOc1ccc(Cl)cc1	9.3	1.5 (≈ 0.493 µg/mL)	14	
CCc1nc2cc(Cl)ccc2n1CCCCOc1ccccc1	53	0.3 (≈ 0.0987 µg/mL)	16	solubility thermodynamic [5]: 670 µg/mL (≈ 2040 µM); metabolised at 0.5 h, 2 µM [6]: 99.8%; fraction unbound at 4.5 h [13]: 0.004; solubility thermodynamic [7]: < 1 µg/mL; solubility thermodynamic [8]: < 1 µg/mL; metabolised at 0.5 h, 2 µM [9]: 98.5%; permeability (MDCK): 3.6%; metabolised at 0.5 h, 2 µM [10]: 99.7%
CCc1nc2ccccc2n1CCCCOc1ccccc1C(C)C	0.7	20 (≈ 6.73 µg/mL)	19	
CCc1nc2ccccc2n1CCCCOc1ccc(C)cc1	93	0.15 (≈ 0.0463 µg/mL)	14	
CCc1nc2ccc(C)cc2n1CCCOc1ccc(C)cc1	56	0.27 (≈ 0.0833 µg/mL)	15	
CCc1nc2ccc(C)cc2n1CCCSc1ccc(C)cc1	3.6	3.3 (≈ 1.07 µg/mL)	12	
CCc1nc2ccccc2n1CCCCOc1ccc(Cl)cc1C	2.3	1.5 (≈ 0.514 µg/mL)	20	
Cc1ccc2nc(C(C)O)n(CCCCOc3ccc(C)c(Cl)c3)c2c1 (centres undefined)	0.8	11 (≈ 4.1 µg/mL)	8.6	
CCc1nc2ccccc2n1CCCCOc1cc(C)c(Cl)c([N+](=O)[O-])c1	19	7.9 (≈ 3.06 µg/mL)	18	
CCc1nc2ccccc2n1CCCCOc1ccccc1Cl	23	0.68 (≈ 0.224 µg/mL)	16	
CCc1nc2ccccc2n1CCCCOc1ccc2sc(C)nc2c1	14	1.5 (≈ 0.548 µg/mL)	21	
CCc1nc2ccccc2n1CCCCOCc1ccccc1	8.9	3.6 (≈ 1.11 µg/mL)	32	
